Legend:
[1] = tested on: gastric cancer cell NCI-N87; experiment: Subcutaneous xenograft of gastric cancer cell NCI-N87 in nude mice (Experimental example 2); type: in vivo; conditions: 190 μmol/kg i.v.
Method: (§2) This experimental example was used for the evaluation of the effectiveness of the compounds of the present invention in inhibiting the proliferation of a subcutaneous xenograft of human tumor cells via various routes of administration.
(§3) Gastric cancer cell NCI-N87 and colorectal cancer cell HCT-116 were cultured as a monolayer in vitro, and the culture conditions were RPMI-1640 culture medium supplemented with 10% heat inactivated Fetal Bovine Serum, and incubation in an incubator at 37° C. and 5% CO2. The cells were subcultured by treatment with trypsin-EDTA digestion.
(§4) The tumor cells were respectively inoculated into BALB/c nude mice (SPF grade, female, 16-18 g per mouse, about 6 to 8 weeks old, Beijing Vital River Laboratory Animal Technology Co., Ltd.).
(§5) Each nude mouse was inoculated with about 2.5×10^6 HCT-116 tumor cells or about 3×10^6 NCI-N87 tumor cells (suspended in 0.1 ml PBS) subcutaneously into the underarm of the right flank. After the inoculated tumor reached a size in the range of about 100-200 mm^3, nude mice bearing a tumor that is too small (smaller than 100 mm^3) or too big (bigger than 200 mm^3) were removed from the study, and the remaining ones were randomized into groups.
(§6) Sulfobutyl ether-β-cyclodextrin (SE-β-CD) was formulated with physiological saline to form a 10% solution, which was then filtered through a 0.22 μm sterile filter for later use.
(§7) An appropriate amount of the test compound was weighted, and added in DMSO. The resultant solution was vortexed to uniformity, and the 10% solution of SE-β-CD was added according to the desired concentration. The solution was vortexed to uniformity, and the final concentration of DMSO was adjusted to 5%. A gemcitabine injection (a positive control) was directly diluted to the desired concentration with physiological saline. A 10% solution of SE-β-CD containing 5% DMSO was prepared as a vehicle control.
(§8) Mice bearing a tumor having a volume of about 100-200 mm^3 were selected, and randomized into 5 groups (8 mice per group). The dosing volume was 10 mL/kg, and the administration (intravenous administration (i.v.) or oral administration (p.o.)) was performed twice a week for 3 weeks. The tumor volume and body weight were measured twice a week after the administration, and the mortality of animals was observed every day.
(§9) The diameter of a tumor was measured, and the tumor volume was calculated according to the following formula: V=0.5a×b^2, wherein a and b respectively represent the major and minor diameters of a tumor. The anti-tumor effect was evaluated by the tumor growth inhibition (TGI) (%). TGI (%)=[1−(VT-end−VT-start)/(VC-end−VC-start)]*100%
(§10) The body weight of an animal was measured twice a week.

[2] = tested on: human pancreatic cancer cell PANC-1; experiment: Subcutaneous xenograft of human pancreatic cancer cell PANC-1 in a nude mouse (Experimental example 6); type: in vivo; conditions: 0.06 mmol/kg i.v., once every 3 days, 6 times
Method: This test was performed according to experimental example 5.
Mice bearing a tumor having a volume of 100-200 mm^3 were selected, and randomized into 4 groups (6 mice per group).

[3] = tested on: human pancreatic cancer cell BxPC-3; experiment: Subcutaneous xenograft of human pancreatic cancer cell BxPC-3 in a nude mouse (Experimental example 3); type: in vivo; conditions: once every 3 days, 4 times
Method: According to methods similar to those in sections 1 to 2 in Experimental example 2, pancreatic cancer cell BxPC-3 was cultured as a monolayer in vitro, and inoculated, and the animals were randomized into groups.
An appropriate amount of the test compound was weighted out, and added in DMSO. The 10% solution of SE-β-CD was then added according to the desired concentration, and the final concentration of DMSO was adjusted to 2.5%. A gemcitabine injection (a positive control) was diluted to the desired concentration with physiological saline. A 10% solution of SE-β-CD containing 2.5% DMSO was prepared as a vehicle control.
Mice bearing a tumor having a volume of 100-200 mm^3 were selected, and randomized into 14 groups (7 mice per group). The dosing volume was 20 mL/kg, and the administration (intravenous administration (i.v.)) was performed once every 3 days, for 4 times in total.
(§1) For statistical calculations of the test indexes, please refer to Experimental example 2.

[4] = tested on: human pancreatic cancer cell Capan-1; experiment: Subcutaneous xenograft of human pancreatic cancer cell Capan-1 in a nude mouse (Experimental example 5); type: in vivo; conditions: once every 3 days, 6 times
Method: According to methods similar to those in sections 1 to 2 in Experimental example 2, pancreatic cancer cell Capan-1 was cultured as a monolayer in vitro, and inoculated, and the animals were randomized into groups.
Samples were prepared as described in Experimental example 2.
Mice bearing a tumor having a volume of 100-200 mm^3 were selected, and randomized into 7 groups (7 mice per group).
as §1

[5] = mice, significant dose administered intravenously; cited from earlier work
[6] = tested on: colorectal cancer cell HCT-116; experiment: Subcutaneous xenograft of colorectal cancer cell HCT-116 in nude mice (Experimental example 2); conditions: 190 μmol/kg i.v.
Method: as §2, §3, §4, §5, §6, §7, §8, §9, §10

[7] = tested on: human pancreatic cancer cell BxPC-3; experiment: Subcutaneous xenograft of human pancreatic cancer cell BxPC-3 in a nude mouse (Experimental example 4); type: in vivo
Method: According to methods similar to those in sections 1 to 3 in Experimental example 2, pancreatic cancer cell BxPC-3 was cultured as a monolayer in vitro, and inoculated; the animals were randomized into groups; and samples were prepared.
Mice bearing a tumor having a volume of 80-250 mm^3 were selected, and randomized into 6 groups (8 mice per group). The dosing volume was 10 mL/kg.
as §1
The test results obtained by administrating (intravenous administration (i.v.) or oral administration (p.o.)) once a week for 3 weeks are shown in table 7-2.

Compound: Nc1ccn([C@@H]2O[C@H](CO)[C@@H](O)C2(F)F)c(=O)n1 [Gemcitabine injection, Gemcitabine, reference compound]
- TGI (%) ([1]; twice a week for 3 weeks): 107%
- Tumor regression, CR (complete tumor regression) ([1]; animals out of 8): 2/8 CR,
- Tumor regression, PR (partial tumor regression) ([1]; animals out of 8): 6/8 PR
- TGI (%) [2]: 64.4%
- TGI (%) ([3]; 0.04 mmol/kg i.v.): −2.2%
- TGI (%) ([3]; 0.12 mmol/kg i.v.): 28.9%
- TGI (%) ([3]; 0.24 mmol/kg i.v.): 45.5%
- TGI (%) ([4]; 0.02 mmol/kg i.v.): 15.4%
- TGI (%) ([4]; 0.19 mmol/kg i.v.): 78.9%
- death or gastrointestinal toxicity after intravenous dosing [5]: no death or gastrointestinal toxicity
- Mortality [6]: 0
- TGI (%) ([6]; twice a week for 3 weeks): 92%
- Tumor regression ([6]; 14 days after last administration): 0
- TGI (%) ([7]; 0.12 mmol/kg i.v., twice a week for 3 weeks): 23.6%
- TGI (%) ([7]; 0.23 mmol/kg i.v., once a week for 3 weeks): 23.6%
